Results: PubChem BioAssay AID1996
≈ marks a conversion by molar mass, not a printed value.

Conditions: buffer; pH 7.4; 200.0 µM

Question: Which solubility kinetic does the source give for `O=C(CNC(=O)c1ccc(Cl)cc1Cl)OC1CCCCC1=O` (stereo unspecified) here?
Answer: 39.4 µg/mL (≈ 114 µM)

Question: Which solubility kinetic does the source give for `COCCCNC(=O)[C@H]1N2C(=O)c3ccccc3C2SC1(C)C` (stereo partly specified) here?
Answer: 45.4 µg/mL (≈ 136 µM)

Question: For `CCCCC1(c2ccc(F)cc2)NC(=O)N(CC(=O)Nc2ccc(N3CCOCC3)cc2)C1=O` (stereo unspecified), which solubility kinetic is on record?
Answer: 55.7 µg/mL (≈ 119 µM)

Question: For `O=C(NCCCNC(=O)c1ccccn1)c1cccc(F)c1`, which solubility kinetic is on record?
Answer: 42.3 µg/mL (≈ 140 µM)

Question: For `Cc1cc(C)c(C(=O)NCCCN2CCOCC2)c(C)c1`, which solubility kinetic is on record?
Answer: > 43.6 µg/mL

Question: For `CC(OC(=O)c1ccc2c(c1)NC(=O)CS2)C(=O)c1ccc(F)cc1` (stereo unspecified), which solubility kinetic is on record?
Answer: 18.1 µg/mL (≈ 50.4 µM)

Question: Which solubility kinetic does the source give for `Cc1cccc(C(=O)OCC(=O)NCC2CCCO2)c1O` (stereo unspecified) here?
Answer: > 44 µg/mL

Question: With `CCOC(=O)c1c(NC(=O)c2ccncc2)sc(C)c1C` as the compound, how does the solubility kinetic read?
Answer: 5 µg/mL (≈ 16.4 µM)

Question: Which solubility kinetic does the source give for `CCN(CC)CC(O)CCCCCCCCC(=O)OC.Cl` (stereo unspecified) here?
Answer: > 48.6 µg/mL

Question: With `COc1ccc(OC)c(/C=C/c2nc3ccccc3[nH]c2=O)c1` as the compound, how does the solubility kinetic read?
Answer: 3.1 µg/mL (≈ 10.1 µM)

Question: Which solubility kinetic does the source give for `O=C(c1ccccc1NS(=O)(=O)c1ccccc1)N1CCCCCC1` here?
Answer: > 53.8 µg/mL

Question: For `CC(C)CCNC(=O)c1cc2c(s1)-c1ccccc1S(=O)(=O)C2`, which solubility kinetic is on record?
Answer: 2.1 µg/mL (≈ 6.01 µM)

Question: With `Cc1ccccc1CC1(CO)CCCN(C(=O)CCC(F)(F)F)C1` (stereo unspecified) as the compound, how does the solubility kinetic read?
Answer: 48.3 µg/mL (≈ 141 µM)

Question: For `Cc1ccc(Cn2cc(CCC(=O)O)c3ccccc32)cc1`, which solubility kinetic is on record?
Answer: > 44 µg/mL

Question: For `CC(C)(C)N(Cc1ccccc1)C(=O)CN1C(=O)c2ccccc2S1(=O)=O`, which solubility kinetic is on record?
Answer: 15.7 µg/mL (≈ 40.6 µM)

Question: With `CCOC(=O)NC(=O)COC(=O)c1cccc2ccccc12` as the compound, how does the solubility kinetic read?
Answer: > 45.2 µg/mL

Question: With `Cc1ccc(NC(=S)NCC2CCN(C(C)c3ccccc3)C2)cc1` (stereo unspecified) as the compound, how does the solubility kinetic read?
Answer: > 53 µg/mL

Question: For `Cc1ccccc1N1CCN(CCC(=O)Nc2ccc(F)cc2)CC1`, which solubility kinetic is on record?
Answer: 39.9 µg/mL (≈ 117 µM)

Question: For `COc1ccc(CONc2ncnc3nonc23)cc1[N+](=O)[O-]`, which solubility kinetic is on record?
Answer: > 47.7 µg/mL

Question: With `Cc1cccc(C)c1NC(=O)CNC(=O)c1cccnc1` as the compound, how does the solubility kinetic read?
Answer: > 42.5 µg/mL

Question: For `O=C(O)c1cccc(S(=O)(=O)Nc2ccc([N+](=O)[O-])cc2O)c1`, which solubility kinetic is on record?
Answer: 45.3 µg/mL (≈ 134 µM)

Question: For `COc1ccc(Nc2oc(-c3ccc(F)cc3)nc2C#N)cc1`, which solubility kinetic is on record?
Answer: < 0.2 µg/mL

Question: With `Cc1cc(C)n2c(=O)c3ccc(Cl)cc3nc2c1C#N` as the compound, how does the solubility kinetic read?
Answer: 1.3 µg/mL (≈ 4.58 µM)

Question: For `O=C(Nc1cc(Cl)cc(Cl)c1)Nc1cnccn1`, which solubility kinetic is on record?
Answer: 0.2 µg/mL (≈ 0.706 µM)

Question: For `C/C(CC(=O)Nc1ccccn1)=N\NC(=O)c1cnccn1`, which solubility kinetic is on record?
Answer: > 44.7 µg/mL

Question: For `CCOc1cccc(/C=N/NC(=O)c2cccnc2)c1O`, which solubility kinetic is on record?
Answer: > 42.8 µg/mL

Question: For `N#C/C(=C\Nc1ccc(Cl)cn1)S(=O)(=O)c1ccccn1`, which solubility kinetic is on record?
Answer: 3.7 µg/mL (≈ 11.5 µM)

Question: Which solubility kinetic does the source give for `O/N=C/c1ccnc(SCc2ccc(Cl)cc2)n1` here?
Answer: 1.2 µg/mL (≈ 4.29 µM)

Question: With `Cc1cc(Sc2nc(N(C)C)nc(N(C)C)n2)nc(Cl)n1` as the compound, how does the solubility kinetic read?
Answer: 1 µg/mL (≈ 3.07 µM)

Question: For `Cc1ccc(OCC(=O)NCCNC(=O)c2ccccn2)cc1`, which solubility kinetic is on record?
Answer: 46.9 µg/mL (≈ 150 µM)

Question: For `OCCNc1cc(Cl)ncn1`, which solubility kinetic is on record?
Answer: > 26 µg/mL

Question: Which solubility kinetic does the source give for `O=C1COc2ccc(C(=O)COC(=O)c3ccccn3)cc2N1` here?
Answer: 16.9 µg/mL (≈ 54.1 µM)

Question: With `O=C(N/C(=C\c1ccccc1)C(=O)N1CCOCC1)c1ccco1` as the compound, how does the solubility kinetic read?
Answer: > 49 µg/mL

Question: For `CCNc1oc(/C=C/c2ccc(OCC)cc2)nc1C#N`, which solubility kinetic is on record?
Answer: 1.7 µg/mL (≈ 6 µM)

Question: With `CCOc1ccc(N=C2NC(=O)SC2CC(=O)OC)cc1` (stereo unspecified) as the compound, how does the solubility kinetic read?
Answer: 12.4 µg/mL (≈ 40.2 µM)

Question: For `Cc1noc(C)c1CC(=O)Nc1ccc2c(c1)OCO2`, which solubility kinetic is on record?
Answer: > 41.1 µg/mL

Question: With `O=S(=O)(c1ccc(Cl)cc1)N1CCNCC1` as the compound, how does the solubility kinetic read?
Answer: > 39.1 µg/mL

Question: With `Cc1cccc(C)c1OCC(O)CN1CCCCC1.Cl` (stereo unspecified) as the compound, how does the solubility kinetic read?
Answer: 43.4 µg/mL

Question: For `Cc1cccc(N2C(=O)Cc3ccccc3C2=O)c1`, which solubility kinetic is on record?
Answer: 30.7 µg/mL (≈ 122 µM)

Question: With `COc1ccc(CC(C)NC2CCCCCC2)cc1` (stereo unspecified) as the compound, how does the solubility kinetic read?
Answer: 31 µg/mL (≈ 119 µM)

Question: With `O=C(c1cccs1)N1CCN=C1SCc1ccc(F)cc1` as the compound, how does the solubility kinetic read?
Answer: < 0.3 µg/mL

Question: Which solubility kinetic does the source give for `CC(C(=O)Nc1ccc2c(c1)OCO2)N(C)CC(=O)Nc1ccccc1Cl` (stereo unspecified) here?
Answer: > 58.5 µg/mL

Question: With `Nc1c(Cl)cc(Cl)cc1C(=O)OCC(=O)N1CCOCC1` as the compound, how does the solubility kinetic read?
Answer: > 50 µg/mL

Question: Which solubility kinetic does the source give for `Cc1[nH]c2ccccc2c1C(=O)C(=O)Nc1ccc2c(c1)OCCO2` here?
Answer: 1.9 µg/mL (≈ 5.65 µM)

Question: For `COc1ccccc1N1CCN(c2cnccn2)CC1`, which solubility kinetic is on record?
Answer: > 40.6 µg/mL

Question: For `Nc1nc(Nc2ccccc2)nc(NC2CCCCC2)c1[N+](=O)[O-]`, which solubility kinetic is on record?
Answer: < 0.1 µg/mL

Question: With `Fc1ccc(CNc2ccc(N3CCN(Cc4ccccc4)CC3)cc2)cc1` as the compound, how does the solubility kinetic read?
Answer: 14.6 µg/mL (≈ 38.9 µM)

Question: For `S=C(NCCCc1ccccc1)Nc1ccccc1`, which solubility kinetic is on record?
Answer: 31.9 µg/mL (≈ 118 µM)

Question: Which solubility kinetic does the source give for `CC(=NCCC1=CCCCC1)c1c(O)n(-c2ccccc2)c(=O)[nH]c1=O` here?
Answer: 10 µg/mL (≈ 28.3 µM)

Question: Which solubility kinetic does the source give for `Cc1cccc(OC(C)C(=O)OCC(=O)N2CCN(c3ccccc3)CC2)c1` (stereo unspecified) here?
Answer: 43.4 µg/mL (≈ 113 µM)

Question: For `COc1ccccc1CCNC(=O)c1ccc(Br)s1`, which solubility kinetic is on record?
Answer: 29 µg/mL (≈ 85.2 µM)

Question: With `CCC1(CC)Cc2ccccc2C(=O)N1` as the compound, how does the solubility kinetic read?
Answer: > 30.5 µg/mL

Question: For `CCOc1ccccc1NC(=O)COC(=O)c1cc(C)oc1C`, which solubility kinetic is on record?
Answer: 2.2 µg/mL (≈ 6.93 µM)

Question: Which solubility kinetic does the source give for `CCNC(=O)c1ccccc1SCC(=O)Nc1ccc(F)cc1` here?
Answer: > 49.9 µg/mL

Question: For `CCN(CC)c1ncc(C#N)c(N)n1`, which solubility kinetic is on record?
Answer: 25.6 µg/mL (≈ 134 µM)

Question: With `Cc1ccc(C(=O)NCCN2CCOCC2)cc1C` as the compound, how does the solubility kinetic read?
Answer: 38.1 µg/mL (≈ 145 µM)

Question: Which solubility kinetic does the source give for `CN(C)C(=S)NC(=O)C12CC3(C)CC(C)(CC(C)(C3)C1)C2` here?
Answer: 1 µg/mL (≈ 3.24 µM)

Question: With `CC(=O)O.CC(C)CC1NC(C(=O)O)Cc2c1[nH]c1ccccc21` (stereo unspecified) as the compound, how does the solubility kinetic read?
Answer: 48.4 µg/mL

Question: Which solubility kinetic does the source give for `O=C(Nc1ccc(Cl)c(NC(=O)c2cccs2)c1)c1ccco1` here?
Answer: 37.4 µg/mL (≈ 108 µM)

Question: With `O=C(Nc1nc2ccccc2[nH]1)c1cc(F)cc(F)c1` as the compound, how does the solubility kinetic read?
Answer: 0.7 µg/mL (≈ 2.56 µM)

Question: Which solubility kinetic does the source give for `CCCCNC(=O)c1cc2c(C)cc(C)cc2[nH]1` here?
Answer: 2.2 µg/mL (≈ 9 µM)
